Data taken from US10722597B2, “Cyclodextrin-panobinostat adduct” (MIDATECH LTD., priority 2016, dated 2020).

Assays:
[1] = tested on: HEPG2 (Hepatocellular carcinoma) cell line; experiment: MTT cell viability (cytotoxicity); type: cell-based; settings: HEPG2, 48 or 72 hrs exposure
Experimental: (§1) Error bars indicate plus or minus standard deviation of triplicate samples. N=1 experimental replicate.
(§2) Cell viability was then assessed using MTT reagent.

[2] = tested on: U87MG (Glioblastoma) cell line; experiment: MTT cell viability (cytotoxicity); type: cell-based; settings: 48 or 72 hrs exposure
Experimental: as §1, §2

[3] = Solubility of panobinostat free base in aqueous media; type: physicochemical
Experimental: The pH of the first aqueous solution is in the range 2.0 to 4.0, for example 2.5 to 3.5. Preferably, the pH of the first aqueous solution is about 3.0.
It is similarly insoluble in concentrated aqueous solutions of 2-hydroxypropyl-β-cyclodextrin (HP-β-CD) (450 mg/ml).

[4] = HPLC stability of 10 mM panobinostat stock solutions at room temperature; type: physicochemical
Experimental: Samples were diluted to allow analysis by HPLC (to avoid overloading the system). Peak areas were measured for both solutions at time 0, 100 h and 150 h post preparation. Samples were stored at room temperature over the course of the analysis. Percentage change was calculated based on the peak area and compared to analysis at time zero. One replicate was analysed and 7.2 μl was injected (equivalent to 0.25 μg on column) for each sample. The concentration of the stock solutions assessed was 10 mM. Column: Ascentis Express Peptide, ES-C18, 10 cm×4.6 mm Mobile phases: 0.1% trifluoroacetic acid (TFA) in acetonitrile (organic) and 0.1% trifluoroacetic acid in water HPLC: Agilent 1260 infinity HPLC conditions used: […]

Row | solubility ([3]; aqueous buffer, thermodynamic from solid, free base, citrate buffer at pH 3.0, read-out: Soluble concentration in citrate buffer) [mM] | Solubility in citrate buffer ([3]; citrate buffer at pH 3.0) | Solubility in concentrated aqueous 2-hydroxypropyl-β-cyclodextrin ([3]; free base, HP-β-CD 450 mg/ml) | Solubility in water ([3]; free base, water) | Decrease of Panobinostat concentration ([4]; DMSO solution, 100 hrs) [%] | Decrease of Panobinostat concentration ([4]; DMSO solution, 150 hrs) [%] | Decrease of Panobinostat concentration ([4]; citrate solution, 100 hrs) [%] | Decrease of Panobinostat concentration ([4]; citrate solution, 150 hrs) [%] | Compound | Toxicity (cell viability, MTT) [1] | Toxicity (cell viability, MTT) [2]
1 |  |  |  |  |  |  |  |  | 2-hydroxypropyl-β-cyclodextrin | essentially non-toxic | essentially non-toxic
2 | ≥ 10 | soluble | insoluble | poorly soluble | 2.8 | 4.4 | 0.4 | 1 | Cc1[nH]c2ccccc2c1CCNCc1ccc(/C=C/C(=O)NO)cc1 [Panobinostat, 2-(E)-N-hydroxy-3-[4[[[2-(2-methyl-1H-indol-3-yl)ethyl]amino]methyl]phenyl]-2-propenamide] |  | 
